Target: Beta-2 adrenergic receptor (Homo sapiens, UniProt P07550)
Assay: Compound was tested for agonist activity against cloned human beta-2 adrenergic receptor at a concentration of 1000 nM

Sequence of Beta-2 adrenergic receptor (P07550 whole entry): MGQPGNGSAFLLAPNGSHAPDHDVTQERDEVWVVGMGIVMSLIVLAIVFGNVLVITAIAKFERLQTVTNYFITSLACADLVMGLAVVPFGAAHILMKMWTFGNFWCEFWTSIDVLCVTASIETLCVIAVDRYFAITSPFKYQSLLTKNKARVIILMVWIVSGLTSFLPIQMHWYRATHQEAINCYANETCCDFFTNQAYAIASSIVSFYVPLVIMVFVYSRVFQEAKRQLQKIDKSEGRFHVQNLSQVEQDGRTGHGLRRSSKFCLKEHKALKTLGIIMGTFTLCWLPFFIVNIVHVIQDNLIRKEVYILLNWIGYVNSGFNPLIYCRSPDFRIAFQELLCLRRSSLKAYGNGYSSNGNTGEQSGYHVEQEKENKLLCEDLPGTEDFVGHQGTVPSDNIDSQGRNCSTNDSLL

EC50: < 0.1 nM
Compound: COc1ccc(CC[C@H](C)NC[C@@H](O)COc2ccc(O)cc2)cc1 [4-{(R)-2-Hydroxy-3-[(S)-3-(4-methoxy-phenyl)-1-methyl-propylamino]-propoxy}-phenol]

From BindingDB's records for doi:10.1016/s0960-894x(98)00169-3 (Merck Research Laboratories, 1999)
